Measured values published in patent US8921344B2, “Formulations and uses of 2-hydroxy-5-phenylazobenzoic acid derivatives” (Salix Pharmaceuticals, Inc., priority 2006, dated 2014).

Key:
clinical = test: clinical; parameters: species or system human; settings: in vivo; for AUClast ratio Treatment B/A / Cmax ratio Treatment B/A / AUClast / AUC(0-t) / Tmax: human; for AUClast / AUC(0-t) / Tmax: male, po; for AUC(0-t): AUClast
Source text: Study periods were separated by a minimum of 4 days. […] The standard pharmacokinetic parameters are shown for both dosing conditions in Table 1.
This delay is indicative of a slower transit of the drug through the GI tract.

[1] = cited from earlier work
[2] = cited from earlier work; remark: listed apart in the source
[3] = compared with 5-ASA; cited from earlier work

Q: Which results are given for O=C(O)CCNC(=O)c1ccc(/N=N/c2ccc(O)c(C(=O)O)c2)cc1 [Balsalazide, reference compound]?
A: AUClast ratio Treatment B/A (clinical): 1.146; Cmax ratio Treatment B/A (clinical): 0.791; Part of the prodrug that reaches the colon ([1]; taken orally): 99%

Q: Which “Change of systemic level as measured by AUClast” value (clinical) does the source give for Nc1ccc(O)c(C(=O)O)c1 [5-ASA, 5-aminosalicylic acid, reference compound] here?
A: significant decrease

Q: And the “Change of systemic level as measured by Cmax” value (clinical)?
A: significant decreases

Q: And the AUClast (clinical)?
A: 2096.4 ± 2577.31 ng·h/mL

Q: What about the AUC(0-t) (clinical) of the same compound?
A: 2590 ± 1460 ng·h/mL

Q: What does the source list for Nc1ccc(C(=O)NCCC(=O)O)cc1 [4-ABA, 4-amino benzoyl-β-alanine]?
A: AUClast (clinical): 302.0 ± 262.07 ng·h/mL; Tmax (clinical): 24.0 ± 8.51 h; AUC(0-t) (clinical): 288 ± 158 ng·h/mL; Tmax (clinical; Tmax): 12.7 ± 9.46 h; Absorption of the released carrier component ([1]; released in the colon, largely eliminated in the feces): poorly absorbed

Q: For O=C(O)CCNC(=O)c1ccc(/N=N/c2ccc(O)c(C(=O)O)c2)cc1 [Disodium balsalazide], which Water solubility [2] is on record?
A: highly water-soluble

Q: Which “AUClast ratio Treatment B/A” value (clinical) does the source give for CC(=O)Nc1ccc(O)c(C(=O)O)c1 [N-Ac-5-ASA, N-acetyl-5-ASA] here?
A: 0.819

Q: What about the “Cmax ratio Treatment B/A” value (clinical) of the same compound?
A: 0.639

Q: What about the “Change of systemic level as measured by Cmax” value (clinical) of the same compound?
A: significant decreases

Q: And the “Part of the oral dose measured in the blood / systemically absorbed” value ([1]; after oral balsalazide)?
A: ~12 % of the oral dose

Q: What about the “Anti-inflammatory activity in the colon” value [3] of the same compound?
A: lower anti-inflammatory activity
